Results on four compounds are retold here after patent US5173405A, “Use of arsenite to reversibly block steroid binding to glucocorticoid receptors in the presence of other steroid receptors” (priority 1990, dated 1992).

The subject of test [1] is steroid-free glucocorticoid receptors. Briefly: Reversal by thiols of arsenite inhibition of [3H]Dex binding to steroid-free receptors. As to conditions: receptors preincubated with 40 uM arsenite 30 min, then thiol 30 min. As to the method:
Referring to FIG. 4, steroid-free receptors in pH 8.8 TAPS buffer containing 21 mM Na2 MoO4 were preincubated with 40 uM arsenite for 30 min and then adjusted to various concentrations of DTT or β-MERC by addition of 100× solutions of each thiol in pH 8.8 TAPS buffer. After a further 30 min preincubation, the binding activity of these receptors was assayed by incubating with [^3 H]Dex±excess [^1 H]Dex for 2.5 hr. The amount of specific binding (determined as described above for FIG. 1A) of [^3 H]Dex after DTT(o) and β-MERC preincubation was expressed as a percent of the untreated control.
(§1) The growth of HTC cells at 37° C. in spinner and monolayer cultures of Swim's S77 medium (GIBCO; Grand Island, N.Y.) supplemented with 5% fetal and 5% newborn bovine serum (both obtained from Biofluids; Rockville, Md.) and 0.03% glutamine are described in Thompson, 1979. HTC cell cytosol containing the steroid-free receptors was prepared, stored in liquid N2, and labelled as set forth in Reichman et al., Biochem., 23, 5376-5384, 1984; Simons et al., Biochem., 23, 6876-6882, 1984. […] The specifically bound [^3 H]Dex was determined by first adding a 10% dextran-coated charcoal solution (added volume=20% of reaction solution volume) to remove free steroid and then subtracting the nonspecific binding seen in the presence of excess [^1 H]Dex.

Test [2] addresses T1, glucocorticoid receptors (HTC cell receptors) (Rattus norvegicus, UniProt P06536).
T1 sequence (P06536 1-795): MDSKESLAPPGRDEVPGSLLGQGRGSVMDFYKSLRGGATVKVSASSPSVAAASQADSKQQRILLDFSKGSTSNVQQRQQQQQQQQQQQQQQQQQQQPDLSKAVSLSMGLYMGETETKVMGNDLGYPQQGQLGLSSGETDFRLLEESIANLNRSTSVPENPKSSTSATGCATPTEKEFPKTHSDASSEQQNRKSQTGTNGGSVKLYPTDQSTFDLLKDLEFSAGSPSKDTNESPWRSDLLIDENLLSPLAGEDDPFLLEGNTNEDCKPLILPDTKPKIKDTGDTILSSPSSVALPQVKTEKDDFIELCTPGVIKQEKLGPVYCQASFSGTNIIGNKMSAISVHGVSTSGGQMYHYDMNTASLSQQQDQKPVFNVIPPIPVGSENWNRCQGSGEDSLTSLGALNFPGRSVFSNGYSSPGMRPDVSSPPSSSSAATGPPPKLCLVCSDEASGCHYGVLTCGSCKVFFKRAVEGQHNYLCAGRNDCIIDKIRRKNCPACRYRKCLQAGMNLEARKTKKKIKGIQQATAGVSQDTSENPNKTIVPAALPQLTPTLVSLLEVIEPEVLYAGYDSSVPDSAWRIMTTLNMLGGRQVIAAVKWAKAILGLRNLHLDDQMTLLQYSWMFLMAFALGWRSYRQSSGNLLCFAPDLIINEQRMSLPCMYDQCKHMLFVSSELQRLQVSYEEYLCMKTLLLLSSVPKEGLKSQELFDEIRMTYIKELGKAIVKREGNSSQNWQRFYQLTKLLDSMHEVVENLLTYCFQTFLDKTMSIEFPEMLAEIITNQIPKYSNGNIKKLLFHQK
In words: [3H]Dex binding to HTC cell cytosol receptors after preincubation with MMTS or arsenite. As to conditions: for inactivation of steroid-binding activity of glucocorticoid receptors: low concentrations of MMTS, very low concentrations of arsenite. As to the method:
Referring to FIG. 1A, duplicate samples of HTC cell (Thompson, E.B., Methods Enzymol., 58, 544-551 [1979]) cytosol solution were pretreated with various concentrations of MMTS in absolute EtOH (final concentration of ETOH=1%) for 0 hr (.smallcircle.), 0.5 hr, or 2.5 hr before the addition of [^3 H]Dex±[^1 H]Dex. After a further 2.5 hr incubation, the free steroid was removed by the addition of dextran-coatedcharcoal. The specific binding to receptors was determined as described by Miller and Simons, J. Biol. Chem., 263, 15217-15225, 1988) (see also section entitled "Cells and preparation and labelling of receptors" below) and plotted as percentage of the EtOH-pretreated control versus the concentration of MMTS. The data points shown are the average values derived from 1-5 experiments.
Referring to FIG. 1B, duplicate samples of HTC cell cytosol solution were treated with various concentrations of MMTS for 2.5 hr before determining the remaining steroid binding activity of the receptors as described above for FIG. 1A.
Referring to FIG. 3, steroid-free receptors containing 21 mM Na2 MoO4 were incubated with various concentrations of 100× (in pH 8.8 TAPS buffer) arsenite for 30 min. The binding activity of these receptors was then assayed by incubating with [^3 H]Dex±excess [^1 H]Dex for 2.5 hr. The amount of specific binding of [^3 H]Dex (determined as described above for FIG. 1A) after arsenite preincubation was expressed as a percent of the untreated control.
The growth of HTC cells at 37° C. in spinner and monolayer cultures of Swim's S77 medium (GIBCO; Grand Island, N.Y.) supplemented with 5% fetal and 5% newborn bovine serum (both obtained from Biofluids; Rockville, Md.) and 0.03% glutamine are described in Thompson, 1979. […] The specifically bound [^3 H]Dex was determined by first adding a 10% dextran-coated charcoal solution (added volume=20% of reaction solution volume) to remove free steroid and then subtracting the nonspecific binding seen in the presence of excess [^1 H]Dex.

Test [3] deals with 16 kDa steroid-binding core fragment of HTC cell receptors. Briefly: [3H]Dex binding to trypsin-generated 16 kDa core fragment after preincubation with arsenite or MMTS. As to conditions: preincubation with arsenite 30 min or MMTS 2.5 hr. Set-up: species or system rat. As to the method: Referring to FIG. 6, duplicate samples of steroid-free receptors in pH 8.8 TAPS buffer containing 21 mM Na2 MoO4 were digested with trypsin (14 μg/ml for 1 hr), to generate the 16 kDa core fragment of the receptor, followed by a 10-fold (wt/wt) excess of soybean trypsin inhibitor to block further digestion. The samples were then treated with various concentrations of arsenite (for 30 min) or MMTS (for 2.5 hr) before determining the remaining [^3 H]Dex binding as described above for FIG. 1A.
as §1

The test system of test [4] is human glucocorticoid receptors. Briefly: [3H]steroid binding of glucocorticoid receptors in MCF-7 cell cytosol after arsenite preincubation. As to conditions: arsenite between 100 and 500 μM. As to the method: (§2) Referring to FIG. 7, steroid-free receptors (glucocorticoid, estrogen, and progesterone receptors in MCF-7 cell [from NCI, NIH] cytosol in pH 7.5 HEPES buffer containing 21 mM Na2 MoO4) were treated with various concentrations of 100× (in pH 7.5 HEPES buffer) sodium arsenite for 30 min. The binding activity of these receptors was then assayed by incubating with [^3 H]steroid±[^1 H]steroid for 2.5 hr. The amount of specific binding of [^3 H]steroid (as described above for FIG. 1A) after arsenite preincubation was expressed as the percent of the untreated control for glucocorticoid estrogen (Δ), and progesterone (.smallcircle.) receptors.
(§3) MCF-7 cells (obtained from NIH) were grown as monolayer cultures in Richter's IMEM (NIH Media Unit, NIH) (supplemented with 10% fetal bovine serum [Biofluids] and 0.03% glutamine) in an atmosphere of 5% CO2 /95% air at 37° C. Crude receptor solutions were prepared by freeze-thaw lysis (in liquid N2) of cells washed in phosphate buffered saline (Reichman et al., 1984; Simons et al., 1984). The cell lysates were treated with either […] TAPS or pH 7.5 HEPES buffer (containing 20 mM Na2 MoO4) and centrifuged at 2500×g for 10 min or 100,000×g for 60 min. […]

Test [5] has as its system human estrogen and progesterone receptors (other receptors). In words: [3H]steroid binding of estrogen and progesterone receptors in MCF-7 cell cytosol after arsenite preincubation. As to conditions: arsenite between 100 and 500 μM. As for the experimental part:
as §2, §3

Molecules are shown by their SMILES.

Consider `O[C@H](CS)[C@H](O)CS` (racemic) [DTT, dithiothreitol], for which the “reversal of arsenite inhibition of steroid binding” value in test [1] is listed as “reversal of arsenite inhibition of steroid binding”.

Turning to `CSS(C)(=O)=O` [MMTS, methyl methanethiolsulfonate], in test [2], the “inactivation of steroid-binding activity of glucocorticoid receptors” value was “specifically and reversibly inactivate all of the steroid-binding activity of glucocorticoid receptors”. In test [2] (rat glucocorticoid receptors), the “preferred MMTS concentration for blocking rat glucocorticoid receptors” value was “approximately 300 μM”. In addition, the “inhibition of [3H]Dex binding to 16 kDa steroid-binding core fragment” value in test [3] is “inhibition of [^3 H]Dex binding”.

In the case of `O=[As]O` [arsenite, sodium arsenite], in test [2], the “inactivation of steroid-binding activity of glucocorticoid receptors” value was “specifically and reversibly inactivate all of the steroid-binding activity of glucocorticoid receptors”. Besides, in test [4], the “inhibition of glucocorticoid binding” value is listed as “complete inhibition of glucocorticoid binding”. Besides, the “effect on other receptors” value in test [5] was “little effect on other receptors”. Also, the “inhibition of [3H]Dex binding to 16 kDa steroid-binding core fragment” value in test [3] was “inhibition of [^3 H]Dex binding”.

For `OCCS` [β-MERC, β-mercaptoethanol], in test [1], the “reversal of arsenite inhibition of steroid binding” value is recorded as “reversal of arsenite inhibition of steroid binding”.
